Results on two compounds are retold here after patent US10974081B2, “Treatment and prevention of sleep disorders” (Purdue Pharma L.P., priority 2016, dated 2021).

In general, solubility refers to how much of the substance goes into solution per volume. For orientation: fraction unbound means the share of the substance not bound to proteins or other matrix.

Structures are written as SMILES. Values after ≈ are worked out from the molar mass of the structure shown. Read-outs that look alike come from different tables or passages of the source.

Series [1] can be described thus: Aqueous solubility at pH about 6.8. The settings on record: 25 °C, pH 6.8, aqueous buffer, kinetic from dmso stock. The series is classed as physicochemical.
For another series, the system named is human liver microsomes. Description: In vitro metabolic stability, human liver microsomes. The series is classed as in vitro ADME. The settings on record: 2 μM, % remaining after 30 minutes at 37° C. On the procedure: (§1) The comparative in vitro metabolic stabilities of Compounds (1F), […], and W-212393 were determined upon exposure to human liver microsomes or rat liver microsomes according to a procedure disclosed in, e.g., Example 14 of U.S. Pat. No. 9,290,488, which is hereby incorporated by reference in its entirety. Liver microsomes from Crj;CD rats or humans were incubated with 2 μM of each tested compound; thereafter, the supernatant was analyzed by HPLC-MS for the concentration of the tested compound present. Human liver microsomes, pooled, 20 mg/mL, were obtained from […] #H0610). […] Alternatively and if desired, rat liver microsomes can be obtained commercially from, e.g., XenoTech (Sprague-Dawley rat liver microsomes, pooled, 20 mg/mL, cat #R1000). β-NADPH (β-nicotinamide adenine dinucleotide 2'-phosphate reduced tetrasodium salt hydrate) was obtained from Oriental Yeast Co., Ltd. (Tokyo, Japan). Each tested compound, present at an initial concentration of 2 μM, was incubated at 37° C. in the presence of 0.5 mg/mL of either human microsomes or rat microsomes in suspension in 50 mM Tris-HCl buffer (7.4 pH), 150 mM KCl, 10 mM MgCl2, and 1 mM β-NADPH. Incubation was initiated upon the addition of a 100-fold concentrated solution of the tested compound to one of the microsome preparations. Incubation was terminated by addition of a two-fold volume of a 1/1 mixture of acetonitrile/methanol after either 0 minutes or 30 minutes of incubation at 37° C. Thereafter, proteins and other macromolecules from the microsome preparation were removed by centrifugation. All incubations were conducted in duplicate. […] The HPLC system consisted of a Waters 2795 separations module (Waters Corp., Milford, Mass.) equipped with an inline degasser, temperature controlled auto-sampler, and column oven. The analytical column was a Waters […], 2.1 mm×20 mm column. The mass analyzer was a Waters ZQ, single quadrupole mass spectrometer equipped with an electrospray ionization source operating in the positive ionization mode and utilizing a stainless steel spray capillary. […]
A general note: Microsomes from liver hold many membrane-bound enzymes, among them those of drug oxidation.

In the next series the test system is rat liver microsomes. Kind of series: In vitro metabolic stability, rat liver microsomes. The class given is in vitro ADME. To be noted: 2 μM, % remaining after 30 minutes at 37° C. Here is the method: as §1
Series [2] can be described thus: Free unbound compound fraction, equilibrium dialysis of rat serum. The class given is in vitro ADME. The settings on record: male, Crl:CD (SD), rat, rat serum; 2 μg/mL, 24 hours dialysis at 37° C. Here is the method: (§2) The extent of in vitro binding of Compound (1F) or W-212393 to rat serum was determined as an assessment of the availability of free unbound compound for modulating receptor activity according to a procedure disclosed in, e.g., Example 15 of U.S. Pat. No. 9,290,488, which is hereby incorporated by reference in its entirety. Serum from rats containing a tested compound in one chamber of a dialysis cell was dialyzed with phosphate buffered saline (“PBS”) in the other chamber; thereafter, the supernatant from each chamber was analyzed for the concentration of the tested compound present. […] The final concentration of each tested compound in the serum sample was adjusted to 2 μg/mL by adding an appropriate volume of PBS. A cell suitable for equilibrium dialysis was used in the determinations. A SPECTRA/POR dialysis membrane (with molecular mass cutoff of 12,000-14,000 Da, Spectrum Laboratories, Inc., Rancho Dominguez, Calif.) separated the dialysis cell into two chambers. A 500 μL aliquot of the serum sample containing a tested compound was applied to one chamber (serum chamber) of the dialysis cell. A 500 μL aliquot of PBS was applied to the other chamber (PBS chamber) of the dialysis cell. The dialysis study was conducted in duplicate for each tested compound. After 24 hours of equilibrium dialysis at 37° C., 30 μL of liquid from the serum chamber of the dialysis cell was collected and to this was added 270 μL of fresh PBS (this combination was designated Sample “A”). Then, 270 μL of liquid from the PBS chamber of the dialysis cell was collected and to this was added 30 μL of control rat serum (i.e., rat serum never exposed to any test compound, this combination was designated Sample “B”). […] Each supernatant was analyzed by LC-MS-MS. […] Thereafter, the percentage of free unbound tested compound was calculated from the ratio of the tested compound amount determined from Sample B divided by the sum of the tested compound amounts determined from Sample A and Sample B.
Background: In equilibrium dialysis only unbound substance equilibrates across the membrane.

The subject of a further series is rat serum. The series is described as above. The series is classed as in vitro ADME. To be noted: average of multiple determinations. On the procedure: as §2
The nature of series [3]: Rat protein binding, equilibrium dialysis of rat plasma. The class given is in vitro ADME. To be noted: rat, rat plasma, 2 μg/mL, 24 hours dialysis at 37° C. On the procedure:
(§3) The extent of in vitro binding of Compound (1F), […], or W-212393 to rat plasma was determined as an assessment of the protein binding of each compound, i.e., compound unavailable for modulating receptor activity. Plasma from rats containing a tested compound in one chamber of a dialysis cell was dialyzed with PBS in the other chamber; thereafter, the supernatant from each chamber was analyzed for the concentration of the tested compound present. A cell suitable for equilibrium dialysis was used in the determinations. The dialysis membrane described in Example 10 (with molecular mass cutoff of 12,000-14,000 Da) separated the dialysis cell into two chambers. The membrane was soaked with purified water and PBS before being placed into the dialysis cell. 4 μL of an iv formulation of each tested compound was added to 996 μL of rat plasma, the latter obtained using syringe containing heparin and EDTA by the procedure described in Example 10, to provide a plasma sample with a tested compound concentration of 2 μg/mL. 450 μL of the plasma sample was applied to one chamber (plasma chamber) of the dialysis cell. A 450 μL aliquot of PBS was applied to the other chamber (PBS chamber) of the dialysis cell. The dialysis study was conducted in duplicate for each tested compound. After 24 hours of equilibrium dialysis at 37° C., 30 μL of liquid from the plasma chamber of the dialysis cell was collected and to this was added 270 μL of fresh PBS (this combination was designated Sample “1”). Then, 270 μL of liquid from the PBS chamber of the dialysis cell was collected and to this was added 30 μL of control rat plasma (i.e., rat plasma never exposed to any test compound, this combination was designated Sample “2”). Thereafter, each sample was mixed well and stored in a freezer until the next analysis step. After the protein precipitated in the freezer, each supernatant thusly obtained was analyzed by LC-MS-MS for unbound test compound. […] Thereafter, the percentage of rat protein-bound (“RPB”) tested compound was calculated as follows: […]

A further series deals with rat plasma. Described as above. The class given is in vitro ADME. Here is the method:
as §3

In another series the target is ORL-1 receptor (Homo sapiens, UniProt P41146). Kind of series: Functional [^35S]GTPγS binding assay, ORL-1. The series is classed as biochemical. The settings on record: from ORL-1 Emax results in Table 21. Background: Binding of GTPγS marks nucleotide exchange on a G protein.
Chain of ORL-1 receptor (P41146 whole entry): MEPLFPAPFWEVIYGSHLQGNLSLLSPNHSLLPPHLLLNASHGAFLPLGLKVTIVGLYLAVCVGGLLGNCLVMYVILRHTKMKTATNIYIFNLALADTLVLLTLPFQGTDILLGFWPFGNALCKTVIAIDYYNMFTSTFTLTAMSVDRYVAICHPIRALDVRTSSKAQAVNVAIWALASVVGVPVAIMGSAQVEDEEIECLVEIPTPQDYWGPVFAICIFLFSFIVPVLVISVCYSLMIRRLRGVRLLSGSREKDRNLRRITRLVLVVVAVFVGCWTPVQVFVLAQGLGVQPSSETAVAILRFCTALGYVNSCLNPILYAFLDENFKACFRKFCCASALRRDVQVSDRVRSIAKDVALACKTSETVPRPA
A further series deals with mu-opioid receptor (Homo sapiens, UniProt P35372). To be noted: determined in Example 18 of U.S. Pat. No. 8,476,271; cited from earlier work.
Chain of mu-opioid receptor (P35372 whole entry): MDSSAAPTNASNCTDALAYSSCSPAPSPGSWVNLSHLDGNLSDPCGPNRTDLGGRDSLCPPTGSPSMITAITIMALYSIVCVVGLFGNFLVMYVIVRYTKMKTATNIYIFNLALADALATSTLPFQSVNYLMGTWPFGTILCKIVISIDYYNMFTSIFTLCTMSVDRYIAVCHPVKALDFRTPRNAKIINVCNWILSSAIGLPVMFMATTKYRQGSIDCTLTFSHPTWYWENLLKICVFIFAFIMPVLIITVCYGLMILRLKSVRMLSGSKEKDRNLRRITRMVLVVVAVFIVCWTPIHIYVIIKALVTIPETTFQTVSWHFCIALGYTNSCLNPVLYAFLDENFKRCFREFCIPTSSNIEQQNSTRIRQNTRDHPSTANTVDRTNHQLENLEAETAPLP

Take `O=C(O)c1nc2ccccc2n([C@H]2C[C@H]3CCC[C@@H](C2)N3C2CC3CCCC(C3)C2)c1=O` (stereo partly drawn) [Compound (1F)]: the solubility at 16 h in [1] (50 mM phosphate buffer, second procedure (50 mM phosphate buffer, HPLC), read-out: Solubility at pH 6.8) was 35 µM (≈ 15.2 µg/mL); in [1] (first procedure (JP2 solution, LC-MS), read-out: Solubility at pH 6.8) it was over 50 µM; in [1] (pH of about 6.8, over both determinations, read-out: aqueous solubility), at least 35 µM. In the series on human liver microsomes, the “Human Metabolic Stability (%)” value came to 98.7%. Further, in the series with rat liver microsomes, the “Rat Metabolic Stability (%)” value was determined as 95.3%. Besides, the results for the free fraction (fraction unbound) at 24 h, 2 μg/mL in [2] and in [3] were 0.65 to 0.7 and 0.491, respectively. The “free unbound compound fraction, average” value with rat serum was 67.5%. Besides, the “Rat Protein Binding (%)” value in the series on rat plasma (2 μg/mL, 24 hours dialysis at 37° C.) amounted to 53.0%. For the same compound, in the series on rat plasma (average of multiple determinations), the “bound compound fraction, average” value is reported as 52%.

In the case of `O=C(O)c1nc2ccccc2n([C@H]2C[C@H]3CCC[C@@H](C2)N3C2CC3CCCC(C3)C2)c1=O` (stereo partly drawn) [Compound (1C)], the “agonist classification at ORL-1 from Emax” value on ORL-1 receptor is “partial agonists”. In addition, the “GTPγS Mu Emax” value on mu-opioid receptor is reported as 0%.
